# Source: patent US12441732B2, “Potassium salt crystal form B of phosphodiesterase type 5 inhibitor, and preparation method and use therefor” (Guangzhou Huazhen Pharmaceutical Co., Ltd, priority 2019, dated 2025)
# Read-outs that look alike come from different tables or passages of the source.
# Key:
# IPF rats = test: Bleomycin-induced idiopathic pulmonary fibrosis (IPF) rats; type: in vivo, SD rats; conditions: 23 days
# Experimental: The animals were purchased, and modeling was started after 3-7 days of acclimatization. The animals were weighed and anesthetized by inhalation with isoflurane. After the animals were confirmed to be anesthetized, the neck was disinfected, and the skin of the neck was cut. The main trachea was exposed by bluntly dissecting the muscle, a small incision was made between the tracheal rings, into which a PE-20 tube was inserted until the left main bronchus, and bleomycin was injected directly (dose: 3 mg/kg, volume: 1.0 ml/kg). The trachea and skin were sutured. After the surgery, the animals were kept warm at 37° C. under an electric blanket until the animals were fully awake and confirmed to be able to feed and drink freely before returning the animals to their normal feeding cages.
# 50 mg/kg Nintedanib group (BIBF-50 mg/kg): BIBF was prepared into a solution of 10 mg/ml with 0.5% sodium carboxymethyl cellulose and administered by gavage at a dose of 50 mg/kg^−1·d^−1;
# Each group of rats was administered by gavage on the day of modeling, once a day for 23 days in total.
# After 23 days of continuous administration, all animals in each group were euthanized by intraperitoneal injection of pentobarbital sodium anesthetic (100 mg/kg) in accordance with the KCl standard operating procedure for animal euthanasia. Whole-body perfusion was performed by low-temperature PBS, and then fixation was performed by whole-body formalin perfusion. The left lung was taken and perfused with an equal amount of formalin fluid for weighing and subsequent lung pathology-related tests.
# Left lung gross pathological examination: after perfusion with an equal amount of formalin, the wet weight of the left lung after the perfusion was weighed and recorded with a microbalance; the volume of the left lung after perfusion was measured and recorded using a toe volume measuring instrument.
# The whole lung of the left lung was dehydrated according to the KCl pathology standard SOPs, and paraffin blocks were prepared. The whole lung of the left lung was paraffin-sectioned at a thickness of 3-4 μm. HE staining and Masson Trichrome staining were performed according to the KCl pathology standard staining SOPs, and the slice panoramic scanning was carried out by a Hamamatsu NanoZoomer Digital Pathology (S210) slice scanner. The lung lesion area was calculated by Masson Trichrome staining of the sections, and the left lung fibrosis area (%) was the percentage of fibrosis area in the left lung area; 10 randomly selected fields of view of 1 mm^2 in the lesion area were semi-quantitatively scored by the pathologist under double-blind conditions according to the Ashcroft scoring system (as shown in Table 8 and FIG. 40).
# PDE5 = PDE5 (Homo sapiens, UniProt O76074); conditions: background statement; cited from earlier work
# [1] = background statement; cited from earlier work
# PAH rats [2] = test: Penile erectile function observation in PAH rats; type: in vivo, SD rats
# Experimental: After gavage treatment, penile erection in the animals was observed, wherein the time of penile erection phenomenon after gavage was recorded in each group.
# PAH rats [3] = test: Monocrotaline-induced pulmonary arterial hypertension (PAH) rats: RVSP, RVMI, pulmonary arterioles; type: in vivo, SD rats; conditions: for RVMI, RV/(LV+S) / RVSP: 3 weeks after MCT
# Source text: SD rats were randomly divided into 8 groups, 15 rats/group: a normal control group (Vehicle); a PAH model group (MCT); a PAH+potassium salt crystal form B of WYQ mini-dose group (hereafter referring to as a mini-dose group); a PAH+potassium salt crystal form B of WYQ low-dose group (hereafter referring to as a low-dose group); a PAH+potassium salt crystal form B of WYQ medium-dose group (hereafter referring to as a medium-dose group); a PAH+potassium salt crystal form B of WYQ high-dose group (hereafter referring to as a high-dose group); a PAH+Sildenafil control group (hereafter referring to as a Sildenafil group); a PAH+Tadalafil control group (hereafter referring to as a Tadalafil group).
# MCT was fully dissolved with 1M dilute HCl, diluted with double-distilled water, and adjusted to pH=7.2 with 3M NaOH, thereby preparing a MCT solution with a final concentration of 20 mg/ml.
# The normal control group was injected subperitoneally with normal saline (50 mg/kg), and the rest of the groups were injected subperitoneally with MCT (50 mg/kg) at one time.
# Mini-dose group: the potassium salt crystal form B of WYQ was prepared into a 0.4 mg/ml medicinal solution (ready to use) with normal saline, and administered by gavage at the dose of 2 mg·kg^−1d^−1;
# Low-dose group: the potassium salt crystal form B of WYQ was prepared into a 1 mg/ml medicinal solution (ready to use) with normal saline, and administered by gavage at the dose of 5 mg·kg^−1d^−1;
# Medium-dose group: the potassium salt crystal form B of WYQ was prepared into a 2 mg/ml medicinal solution (ready to use) with normal saline, and administered by gavage at the dose of 10 mg·kg^−1d^−1;
# High-dose group: the potassium salt crystal form B of WYQ was prepared into a 4 mg/ml medicinal solution (ready to use) with normal saline, and administered by gavage at the dose of 20 mg·kg^−1d^−1;
# Sildenafil group: Sildenafil was prepared into a 5 mg/ml medicinal solution (ready to use) with 0.5% sodium carboxymethyl cellulose, and administered by gavage at the dose of 25 mg·kg^−1d^−1;
# Tadalafil group: Tadalafil was prepared into a 2 mg/ml medicinal solution (ready to use) with 0.5% sodium carboxymethyl cellulose, and administered by gavage at the dose of 10 mg·kg^−1d^−1.
# The day of injection was the starting date of the experiment, and the administration was started after 7 days of modeling, once a day for 14 consecutive days.
# After 3 weeks from the starting date of the experiment, RVSP data were collected on RM-6240E polygraph for each group of rats.
# After 3 weeks from the starting date of the experiment, the animals were anesthetized, hemodynamically tested (RM-6240E polygraph), and sacrificed after manometry. The cardiopulmonary tissues were immediately dissected, and the right and left atria and great vessels were cut off along the atrioventricular junction with ophthalmic scissors to separate the right ventricle (RV) and left ventricular wall plus septum (LV+S), which was absorbed water with filter paper and weighed respectively, and RV/(LV+S), i.e., RVMI was calculated.
# After 3 weeks from the starting date of the experiment, rats were heparinized with heparin (50 IU/100 g, intraperitoneal injection) for 5 min. The animals were anesthetized by injection of 20% urethane solution (0.5 ml/100 g), and the blood pressure indexes were detected and recorded.
# The heart was dissected, the right ventricular wall was separated, and the left ventricle and the septum were separated, which were absorbed water with filter paper and weighed respectively to calculate the right ventricular hypertrophy index.
# The lungs were dissected, wherein the right lung was ligated, and the left lung lobe was perfused with a fixative (4% paraformaldehyde) and then fixed in the fixative, dehydrated by ethanol gradient, allowed to become transparent by using xylene, immersed in wax, embedded in paraffin, sectioned (4 μm), stained with hematoxylin-eosin (HE), sealed with neutral gum and then observed under a microscope. […]
# [4] = Dynamic solubility test in water, SGF, FaSSIF, FeSSIF at 37° C.; type: physicochemical; conditions: for solubility at 1 h / solubility at 4 h / solubility at 24 h: thermodynamic from solid, read-out: solubility (S)
# [5] = Solid-state stability test (one week, open); type: physicochemical; conditions: for HPLC purity: Purity after placement / Purity after placement/Starting purity / Crystal form change: open; for Crystal form change: XRPD
# Experimental: The solid-state stability of the potassium salt crystal form B prepared in Embodiment 1 was tested, in which 5.22 mg of potassium salt crystal form B samples were weighed and left open at 25° C./60% RH, and 5.19 mg of potassium salt crystal form B samples were weighed and left open at 40° C./75% RH. After one week, all samples were subjected to XRPD characterization (see XRPD parameter settings in Table 1) and HPLC purity test (Agilent 1100) to detect changes in crystal form and purity, wherein HPLC purity test parameters were shown in Table 6. Meanwhile, 4.59 mg of a compound WYQ sample was weighed and left open at 25° C./60% RH, and 5.11 mg of the compound WYQ sample was weighed and left open at 40° C./75% RH. The solid-state stability of these samples were performed under the same conditions for comparative reference.
# [6] = Sildenafil group 25 mg·kg^−1d^−1
# [7] = Sildenafil group 25 mg·kg^−1d^−1 gavage once a day for 14 days
# [8] = Tadalafil group 10 mg·kg^−1d^−1 gavage once a day for 14 days
smiles,measurement,setting,value
"COC(=O)c1ccc2c(c1)NC(=O)/C2=C(\Nc1ccc(N(C)C(=O)CN2CCN(C)CC2)cc1)c1ccccc1 [BIBF, Nintedanib, reference compound]",Left lung volume,IPF rats; 50 mg/kg gavage once a day,1736.9 ± 136.10 mm^3
same,Left lung weight,IPF rats; 50 mg/kg gavage once a day,1.58 ± 0.12 g
same,alveolar tissue structure in left lung pulmonary fibrosis lesions (HE staining),IPF rats; 50 mg/kg,some of the alveolar structures in the fibrotic lesions were still damaged
same,alveolar tissue structure in left lung pulmonary fibrosis lesions (Masson Trichrom staining),IPF rats; 50 mg/kg,some of the alveolar structures in the fibrotic lesions disappeared
same,left lung pulmonary fibrosis lesions and lesion range vs the model group,"IPF rats; different doses, H&E and Masson Trichrom staining",no significant difference
same,Fibrosis area,"IPF rats; left lung, 50 mg/kg",56.91 ± 4.19%
same,Percentage of score (%) (≤3),"IPF rats; left lung, 50 mg/kg",78.75 ± 4.79 %
"CCCc1nn(C)c2c(=O)[nH]c(-c3cc(S(=O)(=O)N4CCN(C)CC4)ccc3OCC)nc12 [Sildenafil, reference compound]",selective effect on PDE5 relative to PDE6,PDE5,10 times
same,bioavailability,[1],about 41%
same,rats showing penile erection,"PAH rats [2]; Sildenafil group 25 mg·kg^−1d^−1, over 30 minutes after gavage",80%
same,WT % of pulmonary arterioles vs PAH model group,PAH rats [3]; [6],not statistically significant
same,tunica media thickness of pulmonary arterioles vs PAH model group,PAH rats [3]; [6],decrease
same,"RVMI, RV/(LV+S)",PAH rats [3]; [7],48.4±1.0%
same,RVSP,PAH rats [3]; [7],60.4±5.0 mmHg
"CN1CC(=O)N2[C@H](c3ccc4c(c3)OCO4)c3[nH]c4ccccc4c3C[C@@H]2C1=O [Tadalafil, reference compound]",biological half-life,[1],approximately 17.5 hours
same,rats showing penile erection,"PAH rats [2]; Tadalafil group 10 mg·kg^−1d^−1, over 30 minutes after gavage",80%
same,"RVMI, RV/(LV+S)",PAH rats [3]; [8],41.8±1.9%
same,RVSP,PAH rats [3]; [8],52.5±2.4 mmHg
"CCCCOC(=O)NS(=O)(=O)c1cccc(-c2nc3c(CCC)nn(C)c3c(=O)[nH]2)c1 [compound WYQ, 5-(2-H-5 (N-butoxycarbonylaminosulfonyl)phenyl)-1-methyl-3-propyl-1,6-dihydro-7H-pyrazolo [4,3-d]pyrimidin-7-one]",crystal form change after XRPD assay (FC),"[4]; FaSSIF, 1 h",yes
same,pH,"[4]; FaSSIF, 1 h",6.5
same,crystal form change after XRPD assay (FC),"[4]; FaSSIF, 4 h",yes
same,pH,"[4]; FaSSIF, 4 h",6.5
same,crystal form change after XRPD assay (FC),"[4]; FaSSIF, 24 h",yes
same,pH,"[4]; FaSSIF, 24 h",6.6
same,crystal form change after XRPD assay (FC),"[4]; FeSSIF, 1 h",yes
same,pH,"[4]; FeSSIF, 1 h",5.0
same,crystal form change after XRPD assay (FC),"[4]; FeSSIF, 4 h",yes
same,pH,"[4]; FeSSIF, 4 h",5.0
same,crystal form change after XRPD assay (FC),"[4]; FeSSIF, 24 h",yes
same,pH,"[4]; FeSSIF, 24 h",5.0
same,crystal form change after XRPD assay (FC),"[4]; SGF, 1 h",yes
same,pH,"[4]; SGF, 1 h",2.4
same,crystal form change after XRPD assay (FC),"[4]; SGF, 4 h",yes
same,pH,"[4]; SGF, 4 h",2.5
same,crystal form change after XRPD assay (FC),"[4]; SGF, 24 h",yes
same,pH,"[4]; SGF, 24 h",2.4
same,solubility at 1 h,"[4]; fasted-state simulated intestinal fluid (FaSSIF), FaSSIF, 1 h",1900 µg/mL
same,solubility at 4 h,"[4]; fasted-state simulated intestinal fluid (FaSSIF), FaSSIF, 4 h",1900 µg/mL
same,solubility at 24 h,"[4]; fasted-state simulated intestinal fluid (FaSSIF), FaSSIF, 24 h",2000 µg/mL
same,solubility at 1 h,"[4]; fed-state simulated intestinal fluid (FeSSIF), FeSSIF, 1 h",160 µg/mL
same,solubility at 4 h,"[4]; fed-state simulated intestinal fluid (FeSSIF), FeSSIF, 4 h",160 µg/mL
same,solubility at 24 h,"[4]; fed-state simulated intestinal fluid (FeSSIF), FeSSIF, 24 h",160 µg/mL
same,solubility at 1 h,"[4]; simulated gastric fluid (SGF), simulated gastric fluid, SGF, 1 h",5.6 µg/mL
same,solubility at 4 h,"[4]; simulated gastric fluid (SGF), simulated gastric fluid, SGF, 4 h",6 µg/mL
same,solubility at 24 h,"[4]; simulated gastric fluid (SGF), simulated gastric fluid, SGF, 24 h",6.9 µg/mL
same,solubility at 1 h,"[4]; water, 1 h",2200 µg/mL
same,solubility at 4 h,"[4]; water, 4 h",1800 µg/mL
same,solubility at 24 h,"[4]; water, 24 h",2200 µg/mL
same,crystal form change after XRPD assay (FC),"[4]; water, 1 h",yes
same,pH,"[4]; water, 1 h",7.7
same,crystal form change after XRPD assay (FC),"[4]; water, 4 h",yes
same,pH,"[4]; water, 4 h",7.9
same,crystal form change after XRPD assay (FC),"[4]; water, 24 h",yes
same,pH,"[4]; water, 24 h",7.6
same,decrease in purity after one week of placement,[5]; 25° C./60% RH,No significant decrease
same,HPLC purity: Purity after placement,"[5]; 25° C./60% RH, one week",97.17 area %
same,Purity after placement/Starting purity,"[5]; 25° C./60% RH, one week",99.8%
same,Crystal form change,"[5]; 25° C./60% RH, one week",unchanged
same,decrease in HPLC purity (area %),"[5]; 40° C./75% RH, one week",about 1%
same,HPLC purity: Purity after placement,"[5]; 40° C./75% RH, one week",96.30 area %
same,Purity after placement/Starting purity,"[5]; 40° C./75% RH, one week",98.9%
same,Crystal form change,"[5]; 40° C./75% RH, one week",changed
